Consider 13 compounds from patent publication US20240025919A1, “AZA-TETRACYCLIC OXAZEPINE COMPOUNDS AND USES THEREOF” (Genentech, Inc., priority 2022, published 2024).

One test has as its target KRAS G12D (Homo sapiens (Human), UniProt P01116, G12D). The test can be described thus: KRAS G12D LoEnz Biochemical Assay, BODIPY-GDP Exchange TR-FRET (SOS1-mediated nucleotide exchange). The following applies: read-out: KRas (G12D) GDP HTRF IC50.
Test [1] has as its target T1, KRAS WT (Homo sapiens (Human), UniProt P01116). Kind of test: KRAS WT Biochemical Assay, BODIPY-GDP Exchange TR-FRET (Example 502; 0.06 nM KRAS WT, 15 nM GDP, 300 nM SOS1, 120-minute incubation). Conditions: read-out: KRas HTRF IC50. The method, then: Example 502: KRAS WT Biochemical Assay, BODIPY-GDP Exchange TR-FRET. Biochemical compound potencies are assessed by evaluating inhibition of SOS1-mediated nucleotide exchange in KRAS WT. In this assay, the SOS1-promoted exchange of fluorescently-labeled GDP (BOPIDY-GDP) is monitored by time-resolved fluorescence resonance energy transfer (TR-FRET). Compounds solubilized in DMSO are dispensed as concentration series into 384-well white assay plates. A preformed complex of 0.06 nM biotin-tagged recombinant human KRAS WT, 15 nM GDP and 0.06 nM terbium-labeled streptavidin (CisBIO) prepared in 10 uL/well assay buffer (20 mM HEPES, pH 7.5, 50 mM NaCl, 10 mM MgCl2, 0.01% Tween-20 and 1 mM dithiothreitol) is added and allowed to incubate for 10-minutes at room temperature. The reaction is initiated with the addition of 5 uL 300 nM recombinant human SOS1 and 300 nM BODIPY-GDP in assay buffer. After a 120-minute incubation, the fluorescence is measured with excitation at 337 nm and emission at 490 and 520 nm. The TR-FRET ratio is determined as the fluorescence at 520 nm divided by the fluorescence at 490 nm multiplied by 10,000. The results are normalized to percent inhibition based on control samples: DMSO (0% inhibition) and control compound at a concentration that inhibits completely (100% inhibition). The normalized TR-FRET results are plotted against compound concentration, and the data are fit to a 4-parameter Hill equation to determine the IC50 values.

For test [2], the target named is T1, KRAS WT. The test can be described thus: KRAS WT Biochemical Assay, BODIPY-GDP Exchange TR-FRET (Example 501; 3 nM KRAS WT, 3 nM SOS1, 60-minute incubation). The essentials:
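SOS1-mediated exchange assay: 3 nM biotin-KRAS WT with terbium-streptavidin, started with 3 nM SOS1 and 300 nM BODIPY-GDP, HEPES pH 7.5 with MgCl2. TR-FRET (520/490 nm) read after 60 min; normalized to DMSO and full-inhibition control, IC50 from 4-parameter Hill fit.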

The mark [3] stands for this setting: read-out: KRas(wt) GDP HTRF IC50.

T1 sequence (P01116-2 other isoform, or with tags, fused parts or gaps): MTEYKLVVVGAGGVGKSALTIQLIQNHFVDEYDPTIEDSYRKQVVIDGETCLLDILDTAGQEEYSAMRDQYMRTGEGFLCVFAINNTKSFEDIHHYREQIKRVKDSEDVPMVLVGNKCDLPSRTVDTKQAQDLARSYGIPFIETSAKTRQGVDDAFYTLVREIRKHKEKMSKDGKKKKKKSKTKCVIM
KRAS G12D, sequence (P01116-2 other isoform, or with tags, fused parts or gaps G12D): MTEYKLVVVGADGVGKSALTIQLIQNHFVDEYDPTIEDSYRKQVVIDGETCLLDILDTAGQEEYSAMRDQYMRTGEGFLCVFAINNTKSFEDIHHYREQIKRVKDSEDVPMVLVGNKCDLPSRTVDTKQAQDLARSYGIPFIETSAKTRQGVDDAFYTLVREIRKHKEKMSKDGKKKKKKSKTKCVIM

As to `COc1cc2ccccc2c(-c2nc3c4c(nc(OC[C@]56CCN5CC(F)(F)C6)nc4c2F)N2C[C@H]4CC[C@H](N4)[C@H]2[C@H](C)O3)n1` [Compound 89, (5S,5aS,6S,9R)-12-(((R)-3,3-Difluoro-1-azabicyclo[3.2.0]heptan-5-yl)methoxy)-1-fluoro-2-(3-methoxyisoquinolin-1-yl)-5-methyl-5a,6,7,8,9,10-hexahydro-5H-4-oxa-3,10a,11,13,14-pentaaza-6,9-methanonaphtho[1,8-ab]heptalene], the results for the IC50 at KRAS G12D and at KRAS WT [1] were 912 nM and 1650 nM, respectively.
Take `Cc1nc(N)cc(-c2nc3c4c(nc(OC[C@]56CCCN5CC(F)(F)C6)nc4c2F)N2C[C@H]4CC[C@H](N4)[C@H]2[C@H](C)O3)c1C(F)(F)F` [Compound 217, 4-((5S,5aS,6S,9R)-12-(((R)-2,2-difluorotetrahydro-1H-pyrrolizin-7a(5H)-yl)methoxy)-1-fluoro-5-methyl-5a,6,7,8,9,10-hexahydro-5H-4-oxa-3,10a,11,13,14-pentaaza-6,9-methanonaphtho[1,8-ab]heptalen-2-yl)-6-methyl-5-(trifluoromethyl)pyridin-2-amine]: the IC50 on KRAS G12D is 3.39 nM; at KRAS WT [2] (read-out: KRas HTRF IC50), 242 nM.
On the same counts, the results for `Cc1nc(N)c(F)c(-c2nc3c4c(nc(OCC56CCN5CC(F)(F)C6)nc4c2F)N2C[C@H]4CC[C@H](N4)[C@H]2[C@H](C)O3)c1C(F)(F)F` (stereo partly drawn) [Compound 220, 4-((5S,5aS,6S,9R)-12-((3,3-Difluoro-1-azabicyclo[3.2.0]heptan-5-yl)methoxy)-1-fluoro-5-methyl-5a,6,7,8,9,10-hexahydro-5H-4-oxa-3,10a,11,13,14-pentaaza-6,9-methanonaphtho[1,8-ab]heptalene-2-yl)-3-fluoro-6-methyl-5-(trifluoromethyl)pyridin-2-amine] are 0.92 nM and 149 nM.
On the same counts, the results for `Cc1c(F)c(N)c(F)c(-c2nc3c4c(nc(OC[C@@]56CCCN5CC5(CC5(F)F)C6)nc4c2F)N2C[C@H]4CC[C@H](N4)[C@H]2[C@H](C)O3)c1C(F)(F)F` (stereo partly drawn) [Compound 225, 3-((5S,5aS,6S,9R)-12-(((7a′S)-2,2-Difluorodihydro-1′H,3′H-spiro[cyclopropane-1,2′-pyrrolizin]-7a′(5′H)-yl)methoxy)-1-fluoro-5-methyl-5a,6,7,8,9,10-hexahydro-5H-4-oxa-3,10a,11,13,14-pentaaza[6,9]methanonaphtho[1,8-ab]heptalene-2-yl)-2,6-difluoro-5-methyl-4-(trifluoromethyl)aniline] are 0.25 nM and 4.2 nM.
Turning to `Cc1nc(N)cc(-c2nc3c4c(nc(OCC5(CN6CCO[C@H](C)C6)CC5)nc4c2F)N2C[C@H]4CC[C@H](N4)[C@H]2[C@H](C)O3)c1C(F)(F)F` [Compound 213, 4-((5S,5aS,6S,9R)-1-Fluoro-5-methyl-12-((1-(((R)-2-methylmorpholino)methyl)cyclopropyl)methoxy)-5a,6,7,8,9,10-hexahydro-5H-4-oxa-3,10a,11,13,14-pentaaza-6,9-methanonaphtho[1,8-ab]heptalen-2-yl)-6-methyl-5-(trifluoromethyl)pyridin-2-amine], the concentration for half-maximal inhibition (IC50) at KRAS G12D came out at 0.31 nM; at KRAS WT [2] (read-out: KRas HTRF IC50), 13.6 nM.
The matching figures for `COCC1(F)CCN(CC2(COc3nc4c5c(nc(-c6cc(N)nc(C)c6C(F)(F)F)c(F)c5n3)O[C@@H](C)[C@@H]3[C@@H]5CC[C@H](CN43)N5)CC2)C1` (stereo partly drawn) [Compound 270, 4-((5S,5aS,6S,9R)-1-fluoro-12-((1-((3-fluoro-3-(methoxymethyl)pyrrolidin-1-yl)methyl)cyclopropyl)methoxy)-5-methyl-5a,6,7,8,9,10-hexahydro-5H-4-oxa-3,10a,11,13,14-pentaaza-6,9-methanonaphtho[1,8-ab]heptalen-2-yl)-6-methyl-5-(trifluoromethyl)pyridin-2-amine]: 0.26 nM and 10.7 nM.
The matching figures for `CO[C@@H]1CCN(CC2(COc3nc4c5c(nc(-c6cc(N)nc(C)c6C(F)(F)F)c(F)c5n3)O[C@@H](C)[C@@H]3[C@@H]5CC[C@H](CN43)N5)CC2)C[C@@H]1F` [Compound 275, 4-((5S,5aS,6S,9R)-1-fluoro-12-((1-(((3S,4R)-3-fluoro-4-methoxypiperidin-1-yl)methyl)cyclopropyl)methoxy)-5-methyl-5a,6,7,8,9,10-hexahydro-5H-4-oxa-3,10a,11,13,14-pentaaza-6,9-methanonaphtho[1,8-ab]heptalene-2-yl)-6-methyl-5-(trifluoromethyl)pyridin-2-amine]: 0.48 nM and 23.3 nM.
Turning to `C#Cc1cccc2cncc(-c3nc4c5c(nc(OC[C@@]67CCCN6CC6(CC6(F)F)C7)nc5c3F)N3C[C@H]5CC[C@H](N5)[C@H]3[C@H](C)O4)c12` (stereo partly drawn) [Compound 40, (5S,5aS,6S,9R)-12-(((7a′S)-2,2-difluorodihydro-1′H,3′H-spiro[cyclopropane-1,2′-pyrrolizin]-7a′(5′H)-yl)methoxy)-2-(5-ethynylisoquinolin-4-yl)-1-fluoro-5-methyl-5a,6,7,8,9,10-hexahydro-5H-4-oxa-3,10a,11,13,14-pentaaza-6,9-methanonaphtho[1,8-ab]heptalene], the results for the IC50 on KRAS G12D and on KRAS WT [2] (setting [3]) were 1.3 nM and 86.8 nM, respectively.
As to `Cc1nc(N)cc(-c2nc3c4c(nc(OCC56C[C@@H](F)CN5C[C@H](F)C6)nc4c2F)N2C[C@H]4CC[C@H](N4)[C@H]2[C@H](C(F)(F)F)O3)c1C(F)(F)F` [Compound 261, 4-((5R,5aS,6S,9R)-12-(((2R,6R)-2,6-Difluorotetrahydro-1H-pyrrolizin-7a(5H)-yl)methoxy)-1-fluoro-5-(trifluoromethyl)-5a,6,7,8,9,10-hexahydro-5H-4-oxa-3,10a,11,13,14-pentaaza-6,9-methanonaphtho[1,8-ab]heptalen-2-yl)-6-methyl-5-(trifluoromethyl)pyridin-2-amine], the IC50 at KRAS G12D is 2.76 nM; at KRAS WT [2] (read-out: KRas HTRF IC50), 97.1 nM.
Consider `Cc1c(F)c(N)cc(-c2nc3c4c(nc(OC[C@@H]5C[C@@H](F)CN5C)nc4c2F)N2C[C@H]4CC[C@H](N4)[C@H]2[C@H](C)O3)c1C(F)(F)F` [Compound 26, 2-Fluoro-5-((5S,5aS,6S,9R)-1-fluoro-12-(((2S,4R)-4-fluoro-1-methylpyrrolidin-2-yl)methoxy)-5-methyl-5a,6,7,8,9,10-hexahydro-5H-4-oxa-3,10a,11,13,14-pentaaza-6,9-methanonaphtho[1,8-ab]heptalen-2-yl)-3-methyl-4-(trifluoromethyl)aniline], for which the IC50 came out at 0.26 nM at KRAS G12D and 6.01 nM at KRAS WT [2] (setting [3]).
For the compound `Cc1nc(N)cc(-c2nc3c4c(nc(OCC5(CN6C[C@@H](C)O[C@@H](C)C6)CC5)nc4c2F)N2C[C@H]4CC[C@H](N4)[C@H]2[C@H](C)O3)c1C(F)(F)F` [Compound 218, 4-((5S,5aS,6S,9R)-12-((1-(((2R,6S)-2,6-Dimethylmorpholino)methyl)cyclopropyl)methoxy)-1-fluoro-5-methyl-5a,6,7,8,9,10-hexahydro-5H-4-oxa-3,10a,11,13,14-pentaaza-6,9-methanonaphtho[1,8-ab]heptalen-2-yl)-6-methyl-5-(trifluoromethyl)pyridin-2-amine], the IC50 on KRAS G12D amounted to 0.29 nM; on KRAS WT [2] (read-out: KRas HTRF IC50), 14.1 nM.
For the compound `C[C@@H]1Oc2nc(-c3cc(N)c(F)c(F)c3CC(F)F)c(F)c3cc(OC[C@@H]4CC[C@H]5COCCN54)nc(c23)N2C[C@H]3CC[C@H](N3)[C@@H]12` [Compound 158, 4-(2,2-Difluoroethyl)-2,3-difluoro-5-((5S,5aS,6S,9R)-1-fluoro-13-(((6S,8aS)-hexahydro-1H-pyrrolo[2,1-c][1,4]oxazin-6-yl)methoxy)-5-methyl-5a,6,7,8,9,10-hexahydro-5H-6,9-epiminoazepino[2′,1′:3,4][1,4]oxazepino[5,6,7-ij][2,7-]naphthyridin-2-yl)aniline], the IC50 on KRAS WT [1] amounted to 121 nM.
As for `Cc1nc(N)c(F)c(-c2nc3c4c(nc(OC[C@@]56CCCN5C[C@H](F)C6)nc4c2F)N2C[C@H]4CC[C@H](N4)[C@H]2[C@H](C(F)(F)F)O3)c1C(F)(F)F` [Compound 256, 3-Fluoro-4-((5R,5aS,6S,9R)-1-fluoro-12-(((2R,7aS)-2-fluorotetrahydro-1H-pyrrolizin-7a(5H)-yl)methoxy)-5-(trifluoromethyl)-5a,6,7,8,9,10-hexahydro-5H-4-oxa-3,10a,11,13,14-pentaaza-6,9-methanonaphtho[1,8-ab]heptalen-2-yl)-6-methyl-5-(trifluoromethyl)pyridin-2-amine], the half-inhibitory concentration (IC50) on KRAS G12D is 0.82 nM; at KRAS WT [2] (read-out: KRas HTRF IC50) it was 17 nM.
